From patent US8420654B2 (Eli Lilly and Company, priority 2008, dated 2013)

What was measured:
hCB-2 [1] = target: T1, hCB-2 (Homo sapiens, UniProt P34972); test: hCB2-Sf9 agonist mode SPA GTP-γ-35S binding assay; format: biochemical; conditions: human CB-2 Sf9 membranes, read-out: hCB-2 SPA GTPγS Sf9 Membrane Agonist Relative EC50
T1 construct: purchased Perkin Elmer, Boston, Mass; host or cells: Sf9 insect cells (membranes)
Experimental: (§1) Compounds of the present invention may be tested for functional activity at the CB-1 and CB-2 receptors in both agonist and antagonist modes using SPA (Scintillation Proximity Assay) based GTP-γ-^35S binding assays. All assay components are prepared in assay buffer (20 mM HEPES, 100 mM NaCl, 5 mM MgCl2, pH 7.4) at room temperature. Semi-log dilutions of test compound are prepared in assay buffer containing BSA (0.125% final conc.) for the agonist mode assays. For the antagonist mode assays, test compounds are prepared in the same manner but also include an 80% efficacious dose of a full agonist (methanandamide). GTP-γ^35S binding for the antagonist assay may be measured in a 96 well format using a modification of an antibody capture technique previously described. (DeLapp, N W, et al. (1999) J Pharmacol Exp Ther 289:946-955.) The CB-2 receptor agonist activity may be measured using a similar method using hCB2-Sf9 membranes. The CB-1 receptor agonist activity may be measured using a whole membrane capture technique using hCB1-CHO membranes. All incubations are done at room temperature.
The hCB2-5f9 assay is run essentially as for the hCB1-sf9 and hCB2-sf9 antagonist assays above, with no challenging agonist added. 1 μM (final conc.) GDP is added to the membrane solution and nonidet P40, anti-Gi-antibody, and SPA bead are added together in a cocktail.
(§2) Data are analyzed as follows: Background is subtracted from all wells. Percent agonist efficacy is determine by normalizing agonist/inverse agonist dose response data to the response obtained for a full agonist (methanandamide). Percent antagonist inhibition is calculated by first normalizing the data to the signal generated by a saturating concentration of the full agonist (methanandamide). Then the data are analyzed using a 4-parameter logistic reduced fit (Activity Base™ and XLFit3™ from IDBS, Emeryville, Calif.). Kb values are determined using a modification of the Cheng-Prusoff relationship: Kb=IC50/(1+[agonist]/EC50), where “IC50” is determined from a four parameter fit of displacement curves, “[agonist]” is the agonist challenge concentration (nM), and “EC50” is determined from a four parameter fit of a full agonist concentration response curve (Cheng and Prusoff 1973). Mean Kb values are calculated as a mean of at least three independent determinations±standard error of the mean (SEM). (Cheng Y C and Prusoff W H. (1973), Biochem Pharmacol 22:3099-3108.) Exemplified compounds are found to be potent CB-1 inverse agonists (Kb≦10 nM, typically <2 nM) and to be selective over the CB-2 receptor (Kb CB-2/Kb CB-1>500, typically >1000).

CYP3A = test: Human CYP fingerprinting, ketoconazole inhibitor; format: in vitro ADME; conditions: 4 μM, human liver microsomes, 30 min, ketoconazole 10 μM
Experimental: (§3) CYP fingerprinting is well established technique and is used as an indication of potential risk of drug-drug interactions in the pharmaceutical sciences. Compounds of the present invention may be assayed by well known methods, essentially as follows: Compounds are incubated at 37° C. at a final concentration of 4 μM with pooled, mixed gender, human liver microsomes and 1 mM NADPH ([…]) (final conc.) for 0 and 30 min. without any CYP inhibitor and with each CYP inhibitor in separate incubations for 30 min. Each inhibitor is specific for an individual cytochrome P450. The specific inhibitors used for CYPs 2C9, 2D6 and 3A were sulfaphenazole, quinidine and ketoconazole, respectively. Ketoconazole (CYP3A) is made up at 25 mM in DMSO and then diluted in buffer to a final concetration of 10 μM. Quinidine (CYP2D6) is made up at 5 mM in 50/50 acetonitrile/water and then diluted in buffer to a final concetration of 10 μM. Sulfaphenazole (CYP2C9) is made up at 100 mM in DMSO and then diluted in buffer to a final concetration of 5 μM. Samples are analyzed by LC-MS in positive or negative electrospray mode using a Waters Acquity Ultra Performance LC coupled to a MicroMass Q-T of-2 mass spectrometer.
(§4) Data are analyzed using MetaboLynx™ version 4.1. With inhibitor present, a reduction in metabolite peak area of less than 30% (relative to the uninhibited control incubation) receives a designation of low risk of Drug Drug Interaction (DDI), a reduction in peak area between 30% and 70% receives a moderate risk of DDI and a reduction of more than 70% receives a high risk of DDI.

CYP2D6 = target: T2, CYP2D6 (Homo sapiens, UniProt P10635); test: Human CYP fingerprinting, quinidine inhibitor; format: in vitro ADME; conditions: 4 μM, human liver microsomes, 30 min, quinidine 10 μM
T2 construct: pooled, mixed gender, human liver microsomes; from tissue; host or cells: pooled, mixed gender human liver microsomes
Experimental: as §3, §4

hCB-1 [2] = target: T3, hCB-1 (Homo sapiens, UniProt P21554); test: hCB1-CHO antagonist mode SPA GTP-γ-35S binding assay; format: biochemical; conditions: human CB-1 CHO membranes, antagonist mode vs methanandamide; read-out: hCB-1 SPA GTPγS CHO Membrane Antagonist Kb
T3 construct: purchased Applied Cell Sciences, Rockville, Md; host or cells: CHO cells (membranes)
Experimental: as §1
(§5) hCB1-CHO and rCB1-CHO Antagonist Assays:
hCB1-CHO or rCB1-CHO membranes (Applied Cell Sciences, Rockville, Md.) and GDP (1 μM final) are added to ice cold assay buffer and homogenized. Diluted compounds, GTP-γ-^35S (500 nM final conc.) and membranes are added to wells of an assay plate and incubated for 30 min. at room temperature. Next, a mixture containing Nonidet P40 detergent (0.2% final conc.), rabbit polyclonal IgG Gαi-3 antibody (provided by Covance, Princeton, N.J.), and 1.25 mg anti-rabbit antibody scintillation proximity assay beads (GE Healthcare, Piscataway, N.J.) is added. The plates are sealed, vortexed, and incubated for an additional 2 hr. Plates are then centrifuged at 700×g for 10 min. and the radioactivity counted.
Data are analyzed as follows: Background is subtracted from all wells. […] Percent antagonist inhibition is calculated by first normalizing the data to the signal generated by a saturating concentration of the full agonist (methanandamide). Then the data are analyzed using a 4-parameter logistic reduced fit (Activity Base™ and XLFit3™ from IDBS, Emeryville, Calif.). Kb values are determined using a modification of the Cheng-Prusoff relationship: Kb=IC50/(1+[agonist]/EC50), where “IC50” is determined from a four parameter fit of displacement curves, “[agonist]” is the agonist challenge concentration (nM), and “EC50” is determined from a four parameter fit of a full agonist concentration response curve (Cheng and Prusoff 1973). Mean Kb values are calculated as a mean of at least three independent determinations±standard error of the mean (SEM). […]

hCB-1 [3] = target: T3, hCB-1; test: hCB1-CHO agonist mode SPA GTP-γ-35S binding assay; format: biochemical; conditions: for EC50: human CB-1 CHO membranes, agonist mode (inverse agonism), read-out: hCB-1 SPA GTPγS CHO Membrane Agonist Relative EC50 inverse; for hCB-1 SPA GTPγS CHO Membrane Agonist % Relative Efficacy: normalized to full agonist methanandamide, below zero = inverse agonist
Experimental: as §1
hCB1-CHO membrane, GDP (1 μM final conc.), and saponin (10 ng/mL final conc., Sigma, St Louis, Mo.) are combined and prepared on ice as for the antagonist assays, above. Diluted test compounds, GTP-γ-^35S (500 nM final conc.) and membranes are combined in the assay plate and incubated for 30 min. Then 1 mg/well Wheatgerm Agglutinin SPA beads (GE Healthcare, Piscataway, N.J.) are added, plates are sealed and vortexed and incubate for 1 hr. before spinning and counting in the same fashion as for the antagonist assays, above.
as §2

CYP2C9 = target: T4, CYP2C9 (Homo sapiens, UniProt P11712); test: Human CYP fingerprinting, sulfaphenazole inhibitor; format: in vitro ADME; conditions: 4 μM, human liver microsomes, 30 min, sulfaphenazole 5 μM
T4 construct: pooled, mixed gender, human liver microsomes; from tissue; host or cells: pooled, mixed gender human liver microsomes
Experimental: as §3, §4

rCB-1 = target: T5, rCB-1 (Rattus norvegicus, UniProt P20272); test: rCB1-CHO antagonist mode SPA GTP-γ-35S binding assay; format: biochemical; conditions: rat CB-1 CHO membranes, antagonist mode vs methanandamide; read-out: rCB-1 SPA GTPγS CHO Membrane Antagonist Kb
T5 construct: purchased Applied Cell Sciences, Rockville, Md; host or cells: CHO cells (membranes)
Experimental: as §1, §5
hCB1-CHO or rCB1-CHO membranes (Applied Cell Sciences, Rockville, Md.) and GDP (1 μM final) are added to ice cold assay buffer and homogenized. […] Plates are then centrifuged at 700×g for 10 min. and the radioactivity counted.
Data are analyzed as follows: Background is subtracted from all wells. […] Percent antagonist inhibition is calculated by first normalizing the data to the signal generated by a saturating concentration of the full agonist (methanandamide). Then the data are analyzed using a 4-parameter logistic reduced fit (Activity Base™ and XLFit3™ from IDBS, Emeryville, Calif.). Kb values are determined using a modification of the Cheng-Prusoff relationship: Kb=IC50/(1+[agonist]/EC50), where “IC50” is determined from a four parameter fit of displacement curves, “[agonist]” is the agonist challenge concentration (nM), and “EC50” is determined from a four parameter fit of a full agonist concentration response curve (Cheng and Prusoff 1973). […]

hCB-2 [4] = target: T1, hCB-2; test: hCB2-Sf9 antagonist mode SPA GTP-γ-35S binding assay; format: biochemical; conditions: human CB-2 Sf9 membranes, antagonist mode vs methanandamide; read-out: hCB-2 SPA GTPγS Sf9 Membrane Antagonist Kb
Experimental: as §1
hCB1-Sf9 and hCB2-Sf9 antagonist Assays:
hCB1-5f9 and hCB2-5f9 membranes (Perkin Elmer, Boston, Mass.) are prepared essentially as above with 1 μM (final conc.) GDP for hCB1-5f9 and 0.05 μM (final conc.) GDP for hCB2-5f9. The assay is run essentially as described for the CHO membranes above. Diluted membranes are pre-incubated with test compound for 15 min., which is followed by addition of GTP-γ-^35S and a further 35 min. incubation. Nonidet P40 and anti-Gi-antibody are added sequentially with a 15 min. incubation after each addition. The SPA beads are then added, the plates are sealed and vortexed, and then incubated at room temperature for 1 hr.
Data are analyzed as follows: Background is subtracted from all wells. Percent agonist efficacy is determine by normalizing agonist/inverse agonist dose response data to the response obtained for a full agonist (methanandamide). Percent antagonist inhibition is calculated by first normalizing the data to the signal generated by a saturating concentration of the full agonist (methanandamide). Then the data are analyzed using a 4-parameter logistic reduced fit (Activity Base™ and XLFit3™ from IDBS, Emeryville, Calif.). Kb values are determined using a modification of the Cheng-Prusoff relationship: Kb=IC50/(1+[agonist]/EC50), where “IC50” is determined from a four parameter fit of displacement curves, “[agonist]” is the agonist challenge concentration (nM), and “EC50” is determined from a four parameter fit of a full agonist concentration response curve (Cheng and Prusoff 1973). Mean Kb values are calculated as a mean of at least three independent determinations±standard error of the mean (SEM). […]

T2 sequence (P10635 whole entry): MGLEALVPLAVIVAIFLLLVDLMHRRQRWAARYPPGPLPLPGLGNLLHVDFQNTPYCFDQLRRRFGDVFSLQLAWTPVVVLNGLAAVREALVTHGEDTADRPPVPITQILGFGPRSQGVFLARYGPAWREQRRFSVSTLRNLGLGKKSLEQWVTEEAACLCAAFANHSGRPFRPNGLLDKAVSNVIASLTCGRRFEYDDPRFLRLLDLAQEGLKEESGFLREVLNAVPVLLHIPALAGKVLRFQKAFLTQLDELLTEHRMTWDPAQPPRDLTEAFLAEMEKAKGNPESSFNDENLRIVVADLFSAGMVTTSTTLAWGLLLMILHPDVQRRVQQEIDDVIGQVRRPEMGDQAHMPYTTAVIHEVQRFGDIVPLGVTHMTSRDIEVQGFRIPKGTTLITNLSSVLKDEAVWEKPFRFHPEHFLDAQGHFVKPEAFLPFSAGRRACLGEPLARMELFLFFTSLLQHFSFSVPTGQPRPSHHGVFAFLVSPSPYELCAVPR
T3 sequence (P21554 whole entry): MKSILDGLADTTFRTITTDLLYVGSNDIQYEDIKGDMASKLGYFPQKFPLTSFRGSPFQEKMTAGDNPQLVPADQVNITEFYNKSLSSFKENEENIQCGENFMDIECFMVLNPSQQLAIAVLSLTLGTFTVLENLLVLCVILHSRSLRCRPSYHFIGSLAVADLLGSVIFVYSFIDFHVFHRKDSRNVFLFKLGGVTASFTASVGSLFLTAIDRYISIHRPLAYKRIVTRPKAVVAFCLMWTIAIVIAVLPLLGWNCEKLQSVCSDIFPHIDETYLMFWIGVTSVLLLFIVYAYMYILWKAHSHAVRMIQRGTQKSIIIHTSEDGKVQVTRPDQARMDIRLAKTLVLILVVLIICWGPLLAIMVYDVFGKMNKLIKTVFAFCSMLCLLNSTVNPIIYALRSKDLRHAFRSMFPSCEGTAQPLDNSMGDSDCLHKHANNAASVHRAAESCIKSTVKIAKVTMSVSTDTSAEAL
T1 sequence (P34972 whole entry): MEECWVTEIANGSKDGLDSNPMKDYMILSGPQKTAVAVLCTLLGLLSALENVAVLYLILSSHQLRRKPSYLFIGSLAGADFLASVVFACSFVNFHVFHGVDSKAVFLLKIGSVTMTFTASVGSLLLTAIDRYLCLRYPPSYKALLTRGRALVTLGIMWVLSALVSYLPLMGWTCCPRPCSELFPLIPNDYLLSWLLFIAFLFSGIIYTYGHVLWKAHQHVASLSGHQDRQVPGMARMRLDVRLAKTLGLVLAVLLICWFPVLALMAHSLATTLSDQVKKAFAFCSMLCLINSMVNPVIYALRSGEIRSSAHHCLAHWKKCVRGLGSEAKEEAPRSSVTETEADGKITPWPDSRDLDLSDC
T5 sequence (P20272 whole entry): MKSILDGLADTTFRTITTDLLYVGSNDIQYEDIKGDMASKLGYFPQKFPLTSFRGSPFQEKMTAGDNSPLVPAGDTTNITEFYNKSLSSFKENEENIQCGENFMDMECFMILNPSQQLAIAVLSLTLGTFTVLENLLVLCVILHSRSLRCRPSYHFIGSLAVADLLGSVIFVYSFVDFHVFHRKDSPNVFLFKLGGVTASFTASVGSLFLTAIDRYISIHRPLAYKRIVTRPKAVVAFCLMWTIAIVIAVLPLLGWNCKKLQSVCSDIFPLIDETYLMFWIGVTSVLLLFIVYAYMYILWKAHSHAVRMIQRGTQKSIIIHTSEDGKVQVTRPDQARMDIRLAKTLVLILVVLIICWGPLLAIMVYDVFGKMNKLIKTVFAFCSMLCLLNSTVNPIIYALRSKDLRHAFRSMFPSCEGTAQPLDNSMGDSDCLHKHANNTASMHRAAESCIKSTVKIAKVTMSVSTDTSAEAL
T4 sequence (P11712 whole entry): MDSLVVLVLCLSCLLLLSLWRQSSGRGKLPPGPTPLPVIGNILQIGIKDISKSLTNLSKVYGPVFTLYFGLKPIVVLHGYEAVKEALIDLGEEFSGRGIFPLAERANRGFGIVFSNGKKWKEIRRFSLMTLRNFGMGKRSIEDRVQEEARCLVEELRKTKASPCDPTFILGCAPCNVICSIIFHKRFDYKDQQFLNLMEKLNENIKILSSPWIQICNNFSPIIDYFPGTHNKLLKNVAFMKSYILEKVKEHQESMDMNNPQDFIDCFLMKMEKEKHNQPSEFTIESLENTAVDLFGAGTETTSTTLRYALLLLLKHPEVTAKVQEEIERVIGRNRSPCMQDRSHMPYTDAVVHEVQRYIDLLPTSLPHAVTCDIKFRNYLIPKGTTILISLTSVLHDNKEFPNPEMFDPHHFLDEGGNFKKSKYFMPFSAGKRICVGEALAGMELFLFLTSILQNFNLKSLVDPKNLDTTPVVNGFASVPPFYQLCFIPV

| EC50 (hCB-2 [1]) [nM] | Kb (hCB-1 [2]) [nM] | EC50 (hCB-1 [3]) [nM] | hCB-1 SPA GTPγS CHO Membrane Agonist % Relative Efficacy (hCB-1 [3]) [%] | Kb (rCB-1) [nM] | Kb (hCB-2 [4]) [nM] | SMILES | Risk of Drug Drug Interaction (DDI) CYP3A (CYP3A) | Risk of Drug Drug Interaction (DDI) CYP2D6 (CYP2D6) | Risk of Drug Drug Interaction (DDI) CYP2C9 (CYP2C9) |
| --- | --- | --- | --- | --- | --- | --- | --- | --- | --- |
| 379 | 0.916 | 1.11 | −107 | 0.195 | 397 | CC(C)(N[C@@H]1C[C@H](c2cccc(F)c2)N(c2ccc(OC(F)(F)F)cc2)C1=O)c1ccnc(C(F)(F)F)n1 [Example 3, (3R,5R)-3-[1-Methyl-1-(2-trifluoromethyl-pyrimidin-4-yl)-ethylamino]-5-(3-fluoro-phenyl)-1-(4-trifluoromethoxy-phenyl)-pyrrolidin-2-one] | low (a reduction in metabolite peak area of less than 30% (relative to the uninhibited control incubation) receives a designation of low risk of Drug Drug Interaction (DDI)) | low (a reduction in metabolite peak area of less than 30% (relative to the uninhibited control incubation) receives a designation of low risk of Drug Drug Interaction (DDI)) | low (a reduction in metabolite peak area of less than 30% (relative to the uninhibited control incubation) receives a designation of low risk of Drug Drug Interaction (DDI)) |
| 288 | 0.83 | 2.52 | −105 | 0.176 | 288 | CC(C)(N[C@@H]1C[C@H](c2ccccc2)N(c2ccc(OC(F)(F)F)cc2)C1=O)c1ccnc(C(F)(F)F)n1 [Example 4] | low (a reduction in metabolite peak area of less than 30% (relative to the uninhibited control incubation) receives a designation of low risk of Drug Drug Interaction (DDI)) | low (a reduction in metabolite peak area of less than 30% (relative to the uninhibited control incubation) receives a designation of low risk of Drug Drug Interaction (DDI)) | low (a reduction in metabolite peak area of less than 30% (relative to the uninhibited control incubation) receives a designation of low risk of Drug Drug Interaction (DDI)) |
|  |  |  |  |  |  | CC(C)(N[C@@H]1C[C@H](c2cccc(OC(F)(F)F)c2)N(c2ccc(C(F)(F)F)cc2)C1=O)c1ccnc(C(F)(F)F)n1 [Example 6, (3R,5R)-3-[1-Methyl-1-(2-trifluoromethyl-pyrimidin-4-yl)-ethylamino]-5-(3-trifluoromethoxy-phenyl)-1-(4-trifluoromethyl-phenyl)-pyrrolidin-2-one adipate] | low (a reduction in metabolite peak area of less than 30% (relative to the uninhibited control incubation) receives a designation of low risk of Drug Drug Interaction (DDI)) | low (a reduction in metabolite peak area of less than 30% (relative to the uninhibited control incubation) receives a designation of low risk of Drug Drug Interaction (DDI)) |  |
